Row | melting point | SMILES
1 | 214.2 to 217.5 °C | Cc1c(F)cc(C(=O)NC2CC2)cc1-c1nc(NC(CO)CO)nc2c1ccc(=O)n2-c1c(F)cccc1F [Example 49, N-cyclopropyl-3-(8-(2,6-difluorophenyl)-2-{[2-hydroxy-1-(hydroxymethyl)ethyl]amino}-7-oxo-7,8-dihydropyrido[2,3-d]pyrimidin-4-yl)-5-fluoro-4-methylbenzamide]
2 | 144 to 147 °C | CSc1nc(-c2cc(C(=O)N(C)C)ccc2C)c2c(n1)N(c1c(F)cccc1F)C(=O)NC2 [Example 73, 3-[8-(2,6-difluorophenyl)-2-(methylthio)-7-oxo-5,6,7,8-tetrahydropyrimido[4,5-d]pyrimidin-4-yl]-N,N,4-trimethylbenzamide]

— patent US20080096905A1, “Process For Preparing Pyrido[2,3-D]Pyrimidin-7-One And 3,4-Dihydropyrimido{4,5-D}Pyrimidin-2(1H)-One Derivatives” (Glaxo Group Limited, priority 2005, published 2008)
